What was measured:
Assay in all cases: In vitro transporter inhibition
Format in all cases: in vitro ADME
human OATP1B1 = molecular target: T1, human OATP1B1 (Homo sapiens, UniProt Q9Y6L6)
T1 sequence (Q9Y6L6 1-691): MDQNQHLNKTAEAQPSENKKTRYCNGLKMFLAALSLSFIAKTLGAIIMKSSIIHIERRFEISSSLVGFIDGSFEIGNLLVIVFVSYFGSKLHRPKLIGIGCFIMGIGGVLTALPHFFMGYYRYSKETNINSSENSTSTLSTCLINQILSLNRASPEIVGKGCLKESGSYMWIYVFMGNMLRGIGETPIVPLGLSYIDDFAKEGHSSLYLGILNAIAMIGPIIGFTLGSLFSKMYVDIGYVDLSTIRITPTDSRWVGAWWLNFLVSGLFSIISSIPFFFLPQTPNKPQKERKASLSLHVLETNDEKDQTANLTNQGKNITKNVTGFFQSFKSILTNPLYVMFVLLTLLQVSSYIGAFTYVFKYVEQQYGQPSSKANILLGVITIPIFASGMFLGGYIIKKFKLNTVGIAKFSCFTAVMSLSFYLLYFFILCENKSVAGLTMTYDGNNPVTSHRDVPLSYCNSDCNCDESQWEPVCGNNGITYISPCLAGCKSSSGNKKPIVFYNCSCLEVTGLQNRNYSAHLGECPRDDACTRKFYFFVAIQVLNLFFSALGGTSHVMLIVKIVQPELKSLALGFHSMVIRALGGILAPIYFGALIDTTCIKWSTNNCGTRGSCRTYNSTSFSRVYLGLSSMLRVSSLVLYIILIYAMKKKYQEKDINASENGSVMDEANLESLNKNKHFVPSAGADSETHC
Procedure: (§1) In vitro drug interaction studies were performed with human transporters. […] Potential interactions with inhibitors of the OAT1 transporter were considered clinically irrelevant.

human MATE1 = molecular target: T2, human MATE1 (Homo sapiens, UniProt Q96FL8)
T2 sequence (Q96FL8 1-570): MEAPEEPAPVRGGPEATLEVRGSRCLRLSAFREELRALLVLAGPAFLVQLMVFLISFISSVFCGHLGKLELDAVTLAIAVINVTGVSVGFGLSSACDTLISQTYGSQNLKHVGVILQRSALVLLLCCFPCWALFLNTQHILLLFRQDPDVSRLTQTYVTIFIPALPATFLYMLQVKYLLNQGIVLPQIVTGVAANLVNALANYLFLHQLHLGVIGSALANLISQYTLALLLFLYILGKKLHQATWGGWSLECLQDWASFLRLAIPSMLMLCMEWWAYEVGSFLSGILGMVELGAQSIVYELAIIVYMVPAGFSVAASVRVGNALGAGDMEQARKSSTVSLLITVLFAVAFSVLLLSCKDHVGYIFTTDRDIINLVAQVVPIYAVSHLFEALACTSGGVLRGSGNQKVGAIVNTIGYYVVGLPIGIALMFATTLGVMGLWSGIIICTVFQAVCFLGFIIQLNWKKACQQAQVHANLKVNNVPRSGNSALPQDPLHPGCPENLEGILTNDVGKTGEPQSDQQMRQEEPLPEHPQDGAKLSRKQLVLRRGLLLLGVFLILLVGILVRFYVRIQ
Procedure: as §1

human OAT3 = molecular target: T3, human OAT3 (Homo sapiens, UniProt Q8TCC7)
T3 sequence (Q8TCC7 1-542): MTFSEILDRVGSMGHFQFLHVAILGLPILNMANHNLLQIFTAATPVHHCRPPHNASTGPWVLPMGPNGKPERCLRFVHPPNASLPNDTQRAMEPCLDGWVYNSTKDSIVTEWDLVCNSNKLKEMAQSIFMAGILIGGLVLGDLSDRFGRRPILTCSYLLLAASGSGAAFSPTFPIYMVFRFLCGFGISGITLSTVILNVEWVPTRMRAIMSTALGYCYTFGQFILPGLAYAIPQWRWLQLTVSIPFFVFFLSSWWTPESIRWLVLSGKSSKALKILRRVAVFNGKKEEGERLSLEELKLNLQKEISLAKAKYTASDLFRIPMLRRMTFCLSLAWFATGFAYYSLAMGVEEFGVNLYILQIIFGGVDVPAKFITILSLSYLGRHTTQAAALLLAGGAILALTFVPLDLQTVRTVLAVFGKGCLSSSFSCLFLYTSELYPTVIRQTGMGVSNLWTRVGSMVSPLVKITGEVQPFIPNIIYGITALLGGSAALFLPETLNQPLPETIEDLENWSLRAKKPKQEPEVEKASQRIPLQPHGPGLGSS
Procedure: as §1

human OAT1 = molecular target: T4, human OAT1 (Homo sapiens, UniProt Q4U2R8)
T4 sequence (Q4U2R8 1-563): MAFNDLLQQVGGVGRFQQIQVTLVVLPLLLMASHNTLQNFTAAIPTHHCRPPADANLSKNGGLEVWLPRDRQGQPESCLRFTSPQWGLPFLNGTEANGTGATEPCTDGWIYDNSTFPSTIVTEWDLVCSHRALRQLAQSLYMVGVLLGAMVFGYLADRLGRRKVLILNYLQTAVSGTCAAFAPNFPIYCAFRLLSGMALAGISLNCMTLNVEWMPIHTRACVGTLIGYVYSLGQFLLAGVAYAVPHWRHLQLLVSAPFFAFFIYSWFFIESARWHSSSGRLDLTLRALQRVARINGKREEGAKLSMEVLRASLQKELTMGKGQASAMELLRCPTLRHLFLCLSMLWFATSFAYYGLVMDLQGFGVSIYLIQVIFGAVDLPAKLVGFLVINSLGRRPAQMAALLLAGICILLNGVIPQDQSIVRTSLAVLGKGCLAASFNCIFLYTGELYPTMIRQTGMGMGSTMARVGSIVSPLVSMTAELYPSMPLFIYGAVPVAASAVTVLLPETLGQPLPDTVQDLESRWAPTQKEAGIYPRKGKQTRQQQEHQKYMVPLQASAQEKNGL
Procedure: as §1

NC(=O)N[C@@H](CCC(=O)O)C(=O)O [carglumic acid, N-carbamoyl-L-glutamic acid]
not an inhibitor: Inhibition of human OATP1B1 uptake transporter (human OATP1B1) | Inhibition of human MATE1 uptake transporter (human MATE1) | Inhibition of human OAT3 uptake transporter (human OAT3) | Inhibition of human OAT1 uptake transporter (human OAT1)

From patent publication US20220040129A1, “TREATMENT OF HYPERAMMONEMIA IN PATIENTS WITH RENAL INSUFFICIENCY” (RECORDATI S.p.A., priority 2019, published 2022)
